Measured values published in the supplement of paper PMC10307832.

Columns and labels:
Assay in all cases: relative viability (nuclei count vs DMSO), 5 days (fraction); higher = more cells survive
Trametinib + OSI-027 = compound: CC(=O)Nc1cccc(-n2c(=O)n(C3CC3)c(=O)c3c(Nc4ccc(I)cc4F)n(C)c(=O)c(C)c32)c1 [Trametinib] + COc1cccc2cc(-c3nc([C@H]4CC[C@H](C(=O)O)CC4)n4ncnc(N)c34)[nH]c12 [OSI-027] (partner 0.5 µM)
Summary of the method: (§1)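 A single step with final 0.05% Triton X-100, 1% formaldehyde and 1 ug/ml Hoechst fixed the cells and stained nuclei 5 days after treatment. Lung cancer cell lines in 1536-well plates had been treated by pin tool the day after seeding with one drug alone or a fixed anchor-drug dose plus five library-drug doses (not always all listed) in √10 steps, and nuclei were counted on 4× images. Relative viability is the ratio of nuclei in treated wells to nuclei in vehicle wells, taken as the median of duplicate plates.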

Trametinib + AZD7762 = compound: CC(=O)Nc1cccc(-n2c(=O)n(C3CC3)c(=O)c3c(Nc4ccc(I)cc4F)n(C)c(=O)c(C)c32)c1 [Trametinib] + NC(=O)Nc1cc(-c2cccc(F)c2)sc1C(=O)N[C@H]1CCCNC1 [AZD7762] (partner 0.2 µM)
Summary of the method: as §1

[1] = compound: CN1C=C(C2=CC=CC=C21)/C=C\3/C4=C(C=CC=N4)NC3=O + Cc1nc(Nc2ncc(C(=O)Nc3c(C)cccc3Cl)s2)cc(N2CCN(CCO)CC2)n1 [Dasatinib] (partner 0.075 µM)
Summary of the method: as §1

[2] = compound: CN1C=C(C2=CC=CC=C21)/C=C\3/C4=C(C=CC=N4)NC3=O + NC(=O)Nc1cc(-c2cccc(F)c2)sc1C(=O)N[C@H]1CCCNC1 [AZD7762] (partner 0.2 µM)
Summary of the method: as §1

| Cell Line | relative viability (Trametinib + OSI-027; first compound 0.0025 µM) | relative viability (Trametinib + OSI-027; first compound 0.007906 µM) | relative viability (Trametinib + OSI-027; first compound 0.025 µM) | relative viability (Trametinib + OSI-027; first compound 0.07906 µM) | relative viability (Trametinib + OSI-027; first compound 0.25 µM) | relative viability (Trametinib + AZD7762; first compound 0.0025 µM) | relative viability (Trametinib + AZD7762; first compound 0.007906 µM) | relative viability (Trametinib + AZD7762; first compound 0.025 µM) | relative viability (Trametinib + AZD7762; first compound 0.07906 µM) | relative viability (Trametinib + AZD7762; first compound 0.25 µM) | relative viability ([1]; first compound 0.02 µM) | relative viability ([1]; first compound 0.06325 µM) | relative viability ([1]; first compound 0.2 µM) | relative viability ([1]; first compound 0.6325 µM) | relative viability ([1]; first compound 2 µM) | relative viability ([2]; first compound 0.02 µM) | relative viability ([2]; first compound 0.06325 µM) | relative viability ([2]; first compound 0.2 µM) | relative viability ([2]; first compound 0.6325 µM) | relative viability ([2]; first compound 2 µM) |
| --- | --- | --- | --- | --- | --- | --- | --- | --- | --- | --- | --- | --- | --- | --- | --- | --- | --- | --- | --- | --- |
| NCI-H647 | 0.674 | 0.696 | 0.533 | 0.368 | 0.175 | 0.543 | 0.3 | 0.262 | 0.174 | 0.165 | 0.208 | 0.176 | 0.105 | 0.143 | 0.167 | 0.348 | 0.418 | 0.0952 | 0.304 | 0.378 |
| NCI-H322M | 0.504 | 0.483 | 0.467 | 0.41 | 0.383 | 0.602 | 0.436 | 0.482 | 0.414 | 0.425 | 0.239 | 0.254 | 0.236 | 0.248 | 0.264 | 0.58 | 0.488 | 0.509 | 0.592 | 0.617 |
| NCI-H2170 | 0.754 | 0.659 | 0.392 | 0.613 | 0.616 | 0.878 | 0.84 | – | 0.748 | 0.556 | 0.442 | 0.581 | 0.525 | 0.468 | 0.597 | 0.86 | 0.811 | 0.581 | 0.825 | 0.761 |
| BEN | 0.317 | 0.274 | 0.27 | 0.294 | 0.325 | 0.703 | 0.652 | 0.412 | 0.525 | 0.635 | 0.263 | 0.275 | – | 0.259 | 0.314 | 0.771 | 0.742 | 0.485 | 0.622 | 0.728 |
| LC-2-ad | 0.853 | 0.57 | 0.513 | 0.516 | 0.416 | 0.732 | 0.584 | 0.518 | 0.403 | 0.406 | 0.572 | 0.482 | 0.45 | 0.597 | 0.515 | 0.836 | 0.835 | 0.754 | 0.821 | 0.861 |
| NCI-H1437 | 0.565 | 0.518 | 0.262 | 0.3 | 0.295 | 1.13 | 0.981 | 0.625 | 0.466 | 0.454 | 0.411 | 0.416 | 0.3 | 0.455 | 0.479 | 1.23 | 1.2 | 1.1 | 1.17 | 1.26 |
| NCI-H3122 | 0.555 | 0.352 | 0.211 | 0.169 | 0.159 | 0.947 | 0.642 | 0.292 | 0.361 | 0.308 | 0.722 | 0.756 | 0.753 | 0.844 | 0.835 | 0.85 | 0.953 | 0.845 | 1.04 | 1.07 |
| NCI-H727 | 0.426 | 0.39 | 0.266 | 0.274 | 0.317 | 0.356 | 0.386 | 0.315 | 0.279 | 0.355 | 0.332 | 0.372 | 0.365 | 0.332 | 1.12 | 0.575 | 0.563 | 0.405 | 0.591 | 0.511 |
| NCI-H1734 | 0.591 | 0.517 | 0.404 | 0.492 | 0.278 | 0.476 | 0.451 | – | 0.509 | 0.369 | 0.453 | 0.408 | – | 0.455 | 0.517 | 0.521 | 0.537 | – | 0.546 | 0.559 |
| HCC-15 | 0.436 | 0.338 | 0.201 | 0.161 | 0.167 | 1.29 | 1 | 1.14 | 0.928 | 0.407 | 0.53 | 0.577 | 0.565 | 0.544 | 0.496 | 1.11 | 1.13 | 1.37 | 1.22 | 1.31 |
| NCI-H2405 | 0.651 | 0.621 | 0.488 | 0.43 | 0.412 | 0.566 | 0.616 | 0.425 | – | 0.401 | 0.253 | 0.22 | 0.205 | 0.196 | 0.241 | 0.857 | 0.731 | 0.552 | 0.835 | 0.795 |
| NCI-H1993 | 0.545 | 0.606 | 0.624 | 0.657 | 0.699 | 0.694 | 0.716 | 0.395 | 0.504 | 0.472 | 0.537 | 0.59 | 0.523 | 0.468 | 0.951 | 0.704 | 0.666 | 0.671 | 0.698 | 0.626 |
| NCI-H460 | 0.557 | 0.332 | 0.244 | 0.141 | 0.0441 | 0.731 | 0.751 | 0.739 | 0.505 | 0.338 | 0.648 | 0.448 | 0.388 | 0.44 | 0.459 | 0.627 | 0.576 | 0.263 | 0.677 | 0.574 |
| NCI-H1651 | 0.54 | 0.702 | 0.443 | 0.603 | 0.469 | 0.454 | 0.427 | 0.352 | 0.439 | 0.186 | 0.522 | 0.534 | 0.353 | 0.464 | 0.345 | 0.497 | 0.455 | 0.433 | 0.557 | 0.477 |
| NCI-H1975 | 0.643 | 0.422 | 0.402 | 0.299 | 0.196 | 0.69 | 0.551 | 0.473 | 0.421 | 0.401 | 0.382 | 0.38 | 0.333 | 0.279 | 0.239 | 0.893 | 0.811 | 0.62 | 0.602 | 0.542 |
| NCI-H2126 | 0.671 | 0.506 | 0.375 | 0.535 | 0.488 | 1.05 | 0.929 | 0.632 | 0.766 | 0.753 | 0.548 | 0.534 | 0.547 | 0.545 | 0.432 | 1.01 | 0.899 | 0.864 | 1 | 1 |
